From PMC12058896, “Potent antimicrobial activity of hydrogel loaded with the antimicrobial peptide, D-Bac8c^2,5 Leu, against monospecies and polymicrobial biofilms of Staphylococcus aureus and Pseudomonas aeruginosa” (Frontiers in Microbiology, 2025)
Non-standard residues stand in square brackets, D forms with d. Residues, ends and D or L forms follow the SMILES beside them.

How the values were obtained:
[1] = test system: tested strains (SH1000, BH48, USA300, BH1CC, PAO1); assay: In vitro serial passage, induction of resistance; format: cell-based, S. aureus and P. aeruginosa; conditions: subculturing for 14 days at sub-MIC concentrations
Experimental: This assay was performed as outlined previously with some modifications ([Ge et al., 1999]; [Mohan et al., 2019]). Briefly, the in vitro serial passage study involved exposing bacteria diluted to 10^4 CFU/mL in cationic adjusted Muller Hinton Broth (Merck, Ireland) to D-Bac8c^2,5 Leu at one-half of the previously established bactericidal concentration. After 90 min of incubation at 37°C, 10 μL was plated in triplicate on MH agar and incubated again overnight. Post-incubation, surviving colonies were harvested, diluted in PBS and re-adjusted to 1 × 10^4 CFU/mL before repeated treatment with the sub-bactericidal concentration. This concentration was determined prior to the initiation of the study and after the 4th, 7th, 11th, and 14th passages. If the concentration after these passages was greater than the original determinate, then at passages […], the amount of peptide used during the bacterial challenge was increased. This was continued over a 14-day course. This assay was performed in independent duplicates.

[2] = test system: monospecies and polymicrobial biofilms of S. aureus and P. aeruginosa; assay: Duckworth biofilm flow device (dynamic biofilm); format: cell-based; conditions: biofilms grown 1 and 5 days under shear flow in SWF; 256 μg/mL for 6 h
Experimental: The Duckworth biofilm flow device was set-up and run following the method described by [Duckworth et al. (2018)]. Twelve disks of agar at 1.5% (w/v) concentration were cut using a 10 mm French press punch and placed into designated wells in the flow device. Cellulose filter (13 mm, 0.22 μm, Merck Millipore, Ireland) was placed on top of each agar disk, and was inoculated with 10 μL of the bacterial inoculum. The device was placed in an incubator at 37°C while a continuous flow of SWF was pumped into the device at a flow rate of 0.322 mL/min for 24 h or 5 days using a peristaltic pump (Supplementary Figure S2). Subsequently, topical treatment with D-Bac8c^2,5 Leu was introduced and allowed to run for a further 6 h. The biofilm formed on the cellulose filters were collected and suspended in 1 mL PBS. Colony counting was performed as described above. The Duckworth biofilm flow device was prepared and run as described above with slight modification. A solution of agarose dissolved in SWF (0.3 g in 20 mL), mixed with bacterial cultures at 10^8 CFU/mL and then supplemented with 3% FBS and 0.15% collagen (Merck, Ireland) was allowed to solidify at room temperature and then 12 disks of that was cut using a 10 mm French press punch. The disks were then placed into designated wells and experiments run as previously described. […]

With `CC(C)C[C@@H](NC(=O)[C@H](N)CCCNC(=N)N)C(=O)N[C@H](Cc1c[nH]c2ccccc12)C(=O)N[C@@H](C(=O)N[C@H](CC(C)C)C(=O)N[C@H](Cc1c[nH]c2ccccc12)C(=O)N[C@H](CCCNC(=N)N)C(=O)N[C@H](CCCNC(=N)N)C(N)=O)C(C)C` [D-Bac8c^2,5 Leu] (H-[dR][dL][dW][dV][dL][dW][dR][dR]-NH2; N-terminus assumed) the “development of resistance (change in MIC)” value [1] was “not accompanied by increased resistance” and the reduction in viability [2] was ≤ 3 log.
